Results from ChEMBL document CHEMBL4219088, “Novel 4-aminoquinazoline derivatives induce growth inhibition, cell cycle arrest and apoptosis via PI3Kα inhibition” (Bioorg Med Chem, 2018).

Experiments:
Type in all cases: functional, cell-based
A549 = assay: Antiproliferative activity against human A549 cells after 72 hrs by sulforhodamine B assay; settings: A549, 72 h
SK-HEP1 = assay: Antiproliferative activity against human SKHEP1 cells after 72 hrs by sulforhodamine B assay; settings: SK-HEP1, 72 h
MCF7 = assay: Antiproliferative activity against human MCF7 cells after 72 hrs by sulforhodamine B assay; settings: MCF7, 72 h
SNU-638 = assay: Antiproliferative activity against human SNU638 cells after 72 hrs by sulforhodamine B assay; settings: SNU-638, 72 h
HCT-116 = assay: Antiproliferative activity against human HCT116 cells after 72 hrs by sulforhodamine B assay; settings: HCT-116, 72 h
MDA-MB-231 = assay: Antiproliferative activity against human MDA-MB-231 cells after 72 hrs by sulforhodamine B assay; settings: MDA-MB-231, 72 h

SMILES | IC50 (A549) | IC50 (SK-HEP1) | IC50 (MCF7) | IC50 (SNU-638) | IC50 (HCT-116) | IC50 (MDA-MB-231)
COc1ncc(-c2ccc3ncnc(NCc4ccncc4)c3c2)cc1NS(=O)(=O)c1ccc(F)cc1F | 11.4 µM | 12.4 µM | 22.5 µM | 6.21 µM | 17.6 µM | 9.71 µM
COc1ncc(-c2ccc3ncnc(NCCCN4CCOCC4)c3c2)cc1NS(=O)(=O)c1ccc(F)cc1F | 9.82 µM | 13.4 µM | 13.5 µM | 4.52 µM | 18.8 µM | 8.96 µM
